The supplement of paper PMC10307832

compound: CC1=CC(=C(N1C2=CC=C(C=C2)Cl)C)C(=O)CN3CCCCC3 [IU1-47] + O=C(CCCCCCC(=O)Nc1ccccc1)NO [Vorinostat] (partner 1 µM); experiment: relative viability (nuclei count vs DMSO), 5 days (fraction); higher = more cells survive; settings: first compound 8 µM
In short: (§1)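 Relative viability divides the nuclei count in treated wells by that in vehicle wells. Lung cancer cell lines were seeded in 1536-well plates, dosed by pin tool the next day, and fixed and stained after 5 days in one step with final 0.05% Triton X-100, 1% formaldehyde and 1 ug/ml Hoechst. Dosing was a single drug or a fixed anchor-drug dose plus five library-drug doses (not always all listed) in √10 steps, and values are medians of duplicate plates imaged at 4×.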

Row | Cell Line | relative viability
1 | NCI-H1944 | 0.524
2 | NCI-H1975 | 0.594

compound: CC1=CC(=C(N1C2=CC=C(C=C2)Cl)C)C(=O)CN3CCCCC3 [IU1-47] + CCNC(=O)c1noc(-c2cc(C(C)C)c(O)cc2O)c1-c1ccc(CN2CCOCC2)cc1 [Luminespib] (partner 0.01 µM); experiment: as above; settings: first compound 0.08 µM
In short: as §1

Row | Cell Line | relative viability
3 | HARA | 0.858
4 | NCI-H322M | 1.03
5 | LCLC-97TM1 | 0.846
6 | NCI-H2009 | 1.09
7 | A-427 | 0.999
8 | NCI-H441 | 0.328
9 | NCI-H661 | 0.901
10 | NCI-H1734 | 0.181
11 | NCI-H460 | 0.0244
12 | NCI-H2347 | 0.233
13 | SK-LU-1 | 0.202
14 | NCI-H1395 | 0.678
15 | 201T | 1.1
16 | NCI-H1915 | 0.816
17 | HCC-827 | 0.819
18 | LXF-289 | 0.822
19 | NCI-H23 | 0.206

Row | Cell Line | relative viability
20 | NCI-H647 | 0.409
21 | CAL-12T | 0.878
22 | NCI-H1651 | 0.876
23 | EPLC-272H | 0.382
24 | NCI-H2228 | 0.154
25 | NCI-H1355 | 0.773
26 | NCI-H1437 | 1.2
27 | NCI-H1755 | 0.273
28 | NCI-H2023 | 0.777
29 | HCC-15 | 0.442
30 | NCI-H1793 | 0.177
31 | PC-14 | 0.185
32 | EKVX | 1.01
33 | LC-2-ad | 1.23
34 | NCI-H1944 | 0.989
35 | NCI-H1975 | 0.142

same assay, conditions: first compound 0.253 µM

Row | Cell Line | relative viability
36 | HARA | 0.98
37 | NCI-H322M | 0.929
38 | LCLC-97TM1 | 0.757
39 | NCI-H2009 | 1.04
40 | A-427 | 0.89
41 | NCI-H441 | 0.336
42 | NCI-H661 | 0.936
43 | NCI-H1734 | 0.202
44 | NCI-H460 | 0.0322
45 | NCI-H2347 | 0.363
46 | SK-LU-1 | 0.197
47 | NCI-H1395 | 0.715
48 | 201T | 1.08
49 | NCI-H1915 | 0.804
50 | HCC-827 | 0.588
51 | LXF-289 | 0.629
52 | NCI-H23 | 0.237

Row | Cell Line | relative viability
53 | NCI-H647 | 0.276
54 | CAL-12T | 0.291
55 | NCI-H1651 | 0.85
56 | EPLC-272H | 0.261
57 | NCI-H2228 | 0.122
58 | NCI-H1355 | 0.721
59 | NCI-H3122 | 0.08
60 | NCI-H1437 | 1.1
61 | NCI-H1755 | 0.465
62 | NCI-H2023 | 0.902
63 | HCC-15 | 0.379
64 | NCI-H1793 | 0.188
65 | PC-14 | 0.168
66 | EKVX | 1.05
67 | LC-2-ad | 1.04
68 | NCI-H1944 | 0.764
69 | NCI-H1975 | 0.198

same assay, conditions: first compound 0.8 µM

Row | Cell Line | relative viability
70 | HARA | 1.66
71 | NCI-H322M | 0.922
72 | LCLC-97TM1 | 0.834
73 | NCI-H2009 | 0.986
74 | A-427 | 0.971
75 | NCI-H441 | 0.478
76 | NCI-H661 | 1.01
77 | NCI-H1734 | 0.18
78 | NCI-H460 | 0.0367
79 | NCI-H2347 | 0.642
80 | SK-LU-1 | 0.204
81 | NCI-H1395 | 0.547
82 | 201T | 1.15
83 | NCI-H1915 | 0.848
84 | HCC-827 | 0.818
85 | LXF-289 | 0.916
86 | NCI-H23 | 0.203

Row | Cell Line | relative viability
87 | NCI-H647 | 0.125
88 | CAL-12T | 0.363
89 | NCI-H1651 | 0.924
90 | EPLC-272H | 0.221
91 | NCI-H2228 | 0.162
92 | NCI-H1355 | 0.735
93 | NCI-H3122 | 0.0904
94 | NCI-H1437 | 1.21
95 | NCI-H1755 | 0.325
96 | NCI-H2023 | 0.913
97 | HCC-15 | 0.389
98 | NCI-H1793 | 0.165
99 | PC-14 | 0.186
100 | EKVX | 0.881
101 | LC-2-ad | 0.883
102 | NCI-H1944 | 0.832
103 | NCI-H1975 | 0.199

same assay, conditions: first compound 2.53 µM

Row | Cell Line | relative viability
104 | NCI-H322M | 0.879
105 | LCLC-97TM1 | 0.716
106 | NCI-H2009 | 1.01
107 | A-427 | 1.04
108 | NCI-H441 | 0.379
109 | NCI-H661 | 0.924
110 | NCI-H460 | 0.0341
111 | NCI-H2347 | 0.513
112 | SK-LU-1 | 0.238
113 | NCI-H1395 | 0.597
114 | HCC-827 | 0.573
115 | LXF-289 | 0.5
116 | NCI-H23 | 0.229
117 | NCI-H647 | 0.221
118 | CAL-12T | 0.438
119 | NCI-H1651 | 0.974
120 | NCI-H2228 | 0.144
121 | NCI-H3122 | 0.108
122 | NCI-H1437 | 1.11
123 | NCI-H1755 | 0.479
124 | NCI-H2023 | 0.885
125 | PC-14 | 0.151
126 | EKVX | 1.02
127 | LC-2-ad | 0.766
128 | NCI-H1944 | 0.729
129 | NCI-H1975 | 0.228

same assay, conditions: first compound 8 µM

Row | Cell Line | relative viability
130 | HARA | 0.49
131 | NCI-H322M | 0.715
132 | LCLC-97TM1 | 0.787
133 | NCI-H2009 | 1.05
134 | A-427 | 0.872
135 | NCI-H441 | 0.343
136 | NCI-H661 | 0.877
137 | NCI-H1734 | 0.215
138 | NCI-H460 | 0.0295
139 | NCI-H2347 | 0.32
140 | SK-LU-1 | 0.207
141 | NCI-H1395 | 0.813
142 | 201T | 1.07
143 | NCI-H1915 | 0.728
144 | HCC-827 | 0.648
145 | LXF-289 | 0.468
146 | NCI-H23 | 0.209

Row | Cell Line | relative viability
147 | NCI-H647 | 0.176
148 | CAL-12T | 0.495
149 | NCI-H1651 | 0.819
150 | EPLC-272H | 0.315
151 | NCI-H2228 | 0.132
152 | NCI-H1355 | 0.64
153 | NCI-H3122 | 0.106
154 | NCI-H1437 | 1.1
155 | NCI-H1755 | 0.451
156 | NCI-H2023 | 0.768
157 | HCC-15 | 0.358
158 | NCI-H1793 | 0.171
159 | PC-14 | 0.179
160 | EKVX | 0.978
161 | LC-2-ad | 1.15
162 | NCI-H1944 | 0.778
163 | NCI-H1975 | 0.37
